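Where inhibition never reached the appropriate level, the endpoint shown equals the highest concentration tested. Otherwise, values were interpolated linearly from a five-concentration, 48-hour dose response in 96-well plates. GI50 = concentration required for 50% inhibition of growth. Definition used: TGI = concentration required for complete inhibition of growth.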
Legend:
Assay in all cases: growth of human tumour cells (NCI), 48 h
A549 NSCLC = test system: A549 NSCLC
CCRF-CEM leukemia = test system: CCRF-CEM leukemia
HL-60(TB) leukemia = test system: HL-60(TB) leukemia
MOLT-4 leukemia = test system: MOLT-4 leukemia
NCI-H226 lung = test system: NCI-H226 lung
NCI-H460 lung = test system: NCI-H460 lung
RPMI-8226 leukemia = test system: RPMI-8226 leukemia
SF-295 CNS = test system: SF-295 CNS
SNB-19 CNS = test system: SNB-19 CNS
MDA-MB-231 breast = test system: MDA-MB-231 breast

COC(=O)C1=CC(=O)C(C(=O)Nc2ccc(OC)cc2)C(c2ccccc2)O1 (centres undefined)
TGI (A549 NSCLC): > 72.9 µM | TGI (CCRF-CEM leukemia): > 100 µM | TGI (HL-60(TB) leukemia): > 100 µM | TGI (MOLT-4 leukemia): > 100 µM | TGI (NCI-H226 lung): 55.1 µM | TGI (NCI-H460 lung): > 100 µM | TGI (RPMI-8226 leukemia): > 100 µM | TGI (SF-295 CNS): 61.4 µM | TGI (SNB-19 CNS): 42 µM

Clc1ccc(Cl)c(N/N=C\c2c[nH]c3ccccc23)c1
GI50 (A549 NSCLC): 14.1 µM | TGI (A549 NSCLC): 29.4 µM | GI50 (CCRF-CEM leukemia): 0.107 µM | TGI (CCRF-CEM leukemia): 11.7 µM | GI50 (MDA-MB-231 breast): 2.05 µM | TGI (MDA-MB-231 breast): 8.07 µM | GI50 (MOLT-4 leukemia): 0.293 µM | TGI (MOLT-4 leukemia): 11.8 µM | GI50 (NCI-H226 lung): 7.99 µM | TGI (NCI-H226 lung): 34.3 µM | GI50 (NCI-H460 lung): > 100 µM | TGI (NCI-H460 lung): > 100 µM | GI50 (RPMI-8226 leukemia): 6.16 µM | TGI (RPMI-8226 leukemia): 26.1 µM | GI50 (SF-295 CNS): 13.8 µM | TGI (SF-295 CNS): 70.4 µM | GI50 (SNB-19 CNS): 13.2 µM | TGI (SNB-19 CNS): 29.4 µM

COC(=O)C1=Cc2cc3c(cc2[C@H](c2ccc4c(c2)OCO4)C1C(=O)OC)OCO3 (some centres undefined)
TGI (A549 NSCLC): > 100 µM | TGI (CCRF-CEM leukemia): > 100 µM | TGI (HL-60(TB) leukemia): > 100 µM | TGI (MOLT-4 leukemia): > 100 µM | TGI (NCI-H226 lung): > 100 µM | TGI (NCI-H460 lung): > 100 µM | TGI (RPMI-8226 leukemia): > 100 µM | TGI (SF-295 CNS): > 100 µM | TGI (SNB-19 CNS): > 100 µM

CC(=O)O[C@@H]1C=CC(=O)C2(CC(=O)O[C@@H]2/C=C(\C)CCC=C(C)C)C1 (some centres undefined)
GI50 (A549 NSCLC): 2.04 µM | TGI (A549 NSCLC): 4.91 µM | GI50 (CCRF-CEM leukemia): 0.163 µM | TGI (CCRF-CEM leukemia): 0.543 µM | GI50 (HL-60(TB) leukemia): 0.184 µM | TGI (HL-60(TB) leukemia): 0.557 µM | GI50 (MDA-MB-231 breast): 0.405 µM | TGI (MDA-MB-231 breast): 1.33 µM | GI50 (MOLT-4 leukemia): 0.126 µM | TGI (MOLT-4 leukemia): 1.03 µM | GI50 (NCI-H226 lung): 0.623 µM | TGI (NCI-H226 lung): 4.77 µM | GI50 (NCI-H460 lung): 0.378 µM | TGI (NCI-H460 lung): 2.2 µM | GI50 (SF-295 CNS): 1.75 µM | TGI (SF-295 CNS): 4.07 µM | GI50 (SNB-19 CNS): 1.6 µM | TGI (SNB-19 CNS): 3.58 µM

CCN(CC)CCN(C)CC(C)(C)C(=O)/C=C/c1ccccc1
TGI (A549 NSCLC): 47.2 µM | TGI (CCRF-CEM leukemia): 38.4 µM | TGI (HL-60(TB) leukemia): 28.9 µM | TGI (MOLT-4 leukemia): 30.5 µM | TGI (NCI-H226 lung): 32.4 µM | TGI (NCI-H460 lung): 20.3 µM | TGI (RPMI-8226 leukemia): 36 µM | TGI (SF-295 CNS): 29.4 µM | TGI (SNB-19 CNS): 28.4 µM

CN(C)C1(C#N)CCC2(CC1)OCCO2
TGI (A549 NSCLC): > 100 µM | TGI (CCRF-CEM leukemia): > 100 µM | TGI (HL-60(TB) leukemia): > 100 µM | TGI (MOLT-4 leukemia): > 100 µM | TGI (NCI-H226 lung): > 100 µM | TGI (NCI-H460 lung): > 100 µM | TGI (RPMI-8226 leukemia): > 100 µM | TGI (SF-295 CNS): > 100 µM | TGI (SNB-19 CNS): > 100 µM

CN(C)CCCn1cnc2ncccc2c1=O
TGI (A549 NSCLC): > 100 µM | TGI (CCRF-CEM leukemia): > 100 µM | TGI (MOLT-4 leukemia): > 100 µM | TGI (NCI-H226 lung): > 100 µM | TGI (NCI-H460 lung): > 100 µM | TGI (SF-295 CNS): > 100 µM | TGI (SNB-19 CNS): > 100 µM

O=c1c(Cl)nsnc1Cl
TGI (A549 NSCLC): 65.4 µM | TGI (CCRF-CEM leukemia): 3.27 µM | TGI (MDA-MB-231 breast): 41.8 µM | TGI (MOLT-4 leukemia): 4.09 µM | TGI (NCI-H226 lung): 53.2 µM | TGI (NCI-H460 lung): > 73.1 µM | TGI (RPMI-8226 leukemia): 5.22 µM | TGI (SF-295 CNS): 40.8 µM | TGI (SNB-19 CNS): 49.1 µM

COc1ccc(NC(=O)CC/C(CC(=O)c2ccco2)=N/Nc2ccc([N+](=O)[O-])cc2[N+](=O)[O-])cc1
TGI (A549 NSCLC): > 100 µM | TGI (CCRF-CEM leukemia): 85.1 µM | TGI (HL-60(TB) leukemia): 88.8 µM | TGI (MOLT-4 leukemia): 97.3 µM | TGI (NCI-H226 lung): > 100 µM | TGI (NCI-H460 lung): > 100 µM | TGI (RPMI-8226 leukemia): 82.3 µM | TGI (SF-295 CNS): > 100 µM | TGI (SNB-19 CNS): > 100 µM

C=CCCc1cc(OC)ccc1CN(C)C(C)(C)CO
TGI (A549 NSCLC): > 100 µM | TGI (CCRF-CEM leukemia): > 100 µM | TGI (NCI-H460 lung): > 100 µM | TGI (RPMI-8226 leukemia): > 100 µM | TGI (SF-295 CNS): > 100 µM | TGI (SNB-19 CNS): > 100 µM

CCOP1(=O)OCC2OC(n3cnc4c(N)ncnc43)C(O)C2O1 (centres undefined)
TGI (A549 NSCLC): > 100 µM | TGI (HL-60(TB) leukemia): > 100 µM | TGI (MDA-MB-231 breast): > 100 µM | TGI (MOLT-4 leukemia): > 100 µM | TGI (NCI-H226 lung): > 100 µM | TGI (NCI-H460 lung): > 100 µM | TGI (RPMI-8226 leukemia): > 100 µM | TGI (SF-295 CNS): > 100 µM | TGI (SNB-19 CNS): > 100 µM

C=C1C(=O)OC2C1C(OC(=O)/C(=C/C)COC(C)=O)CC1(CO1)C1C(OC(=O)/C(=C/C)CO)C=C(C)C21 (centres undefined)
TGI (A549 NSCLC): 24.8 µM | TGI (CCRF-CEM leukemia): 2.13 µM | TGI (HL-60(TB) leukemia): 2.34 µM | TGI (MOLT-4 leukemia): 2.24 µM | TGI (NCI-H226 lung): 4.18 µM | TGI (NCI-H460 lung): 28.3 µM | TGI (RPMI-8226 leukemia): 6.56 µM | TGI (SF-295 CNS): 20.8 µM | TGI (SNB-19 CNS): 13.9 µM

CN1CCC(O)C(CNC23CC4CC(CC(C4)C2)C3)C1 (centres undefined)
TGI (A549 NSCLC): > 100 µM | TGI (CCRF-CEM leukemia): > 100 µM | TGI (HL-60(TB) leukemia): > 100 µM | TGI (MOLT-4 leukemia): > 100 µM | TGI (NCI-H226 lung): > 100 µM | TGI (NCI-H460 lung): > 100 µM | TGI (SF-295 CNS): > 100 µM | TGI (SNB-19 CNS): > 100 µM

CCOC(=O)C(C(=O)c1ccccc1-c1ccccc1C(=O)O)=P(c1ccccc1)(c1ccccc1)c1ccccc1
TGI (A549 NSCLC): > 100 µM | TGI (CCRF-CEM leukemia): 77.1 µM | TGI (HL-60(TB) leukemia): 57.5 µM | TGI (MOLT-4 leukemia): 79 µM | TGI (NCI-H226 lung): 73.7 µM | TGI (NCI-H460 lung): 39 µM | TGI (RPMI-8226 leukemia): 78.9 µM | TGI (SF-295 CNS): 88.8 µM | TGI (SNB-19 CNS): 92 µM

COC(=O)C1=C(O)C(O)=C(C(=O)OC)CC1
TGI (A549 NSCLC): > 100 µM | TGI (CCRF-CEM leukemia): > 100 µM | TGI (HL-60(TB) leukemia): > 100 µM | TGI (MOLT-4 leukemia): > 100 µM | TGI (NCI-H226 lung): > 100 µM | TGI (NCI-H460 lung): > 100 µM | TGI (RPMI-8226 leukemia): > 100 µM | TGI (SF-295 CNS): > 100 µM | TGI (SNB-19 CNS): > 100 µM

COc1ccc(CN(O)C2C(CO)OC(n3cc(I)c(=O)[nH]c3=O)C2O)cc1 (centres undefined)
TGI (A549 NSCLC): > 100 µM | TGI (CCRF-CEM leukemia): > 100 µM | TGI (HL-60(TB) leukemia): > 100 µM | TGI (MOLT-4 leukemia): > 100 µM | TGI (NCI-H460 lung): > 100 µM | TGI (RPMI-8226 leukemia): > 100 µM | TGI (SF-295 CNS): > 100 µM | TGI (SNB-19 CNS): > 100 µM

[N-]=[N+]=Nc1ccc(S(=O)(=O)Oc2cc(OS(=O)(=O)c3ccc(N=[N+]=[N-])cc3)cc(OS(=O)(=O)c3ccc(N=[N+]=[N-])cc3)c2)cc1
TGI (A549 NSCLC): > 100 µM | TGI (CCRF-CEM leukemia): > 100 µM | TGI (MOLT-4 leukemia): > 100 µM | TGI (NCI-H226 lung): > 10 µM | TGI (NCI-H460 lung): > 100 µM | TGI (RPMI-8226 leukemia): > 100 µM | TGI (SF-295 CNS): > 100 µM | TGI (SNB-19 CNS): > 10 µM

Cc1c(C(=O)/C=C/c2ccco2)[n+](=O)c2ccccc2n1[O-]
TGI (A549 NSCLC): > 100 µM | TGI (CCRF-CEM leukemia): > 100 µM | TGI (HL-60(TB) leukemia): > 100 µM | TGI (MOLT-4 leukemia): > 100 µM | TGI (NCI-H226 lung): > 100 µM | TGI (NCI-H460 lung): > 100 µM | TGI (RPMI-8226 leukemia): > 100 µM | TGI (SF-295 CNS): > 100 µM | TGI (SNB-19 CNS): > 100 µM

O=C(CC1Sc2ccccc2NC1=O)Nc1cccc(Cl)c1 (centres undefined)
TGI (A549 NSCLC): > 100 µM | TGI (CCRF-CEM leukemia): > 100 µM | TGI (HL-60(TB) leukemia): > 100 µM | TGI (MOLT-4 leukemia): 57.2 µM | TGI (NCI-H226 lung): 90.8 µM | TGI (NCI-H460 lung): > 100 µM | TGI (RPMI-8226 leukemia): 69.6 µM | TGI (SF-295 CNS): > 100 µM | TGI (SNB-19 CNS): > 100 µM

COc1ccc(C(=O)O/N=C2\CCCC\C2=C/c2ccccc2)cc1
TGI (A549 NSCLC): > 100 µM | TGI (CCRF-CEM leukemia): > 100 µM | TGI (HL-60(TB) leukemia): > 100 µM | TGI (MOLT-4 leukemia): > 100 µM | TGI (NCI-H460 lung): > 100 µM | TGI (SNB-19 CNS): > 100 µM

N#Cc1c([N+](=O)[O-])cc(C(F)(F)F)cc1[N+](=O)[O-]
TGI (A549 NSCLC): 37.6 µM | TGI (MOLT-4 leukemia): 4.95 µM | TGI (NCI-H226 lung): 37.3 µM | TGI (NCI-H460 lung): 40.3 µM | TGI (RPMI-8226 leukemia): 6.28 µM | TGI (SF-295 CNS): 10.3 µM | TGI (SNB-19 CNS): 32.4 µM

Reference: PubChem BioAssay (NCI)
